From US20070225351A1, “Methods and compositions for controlling body weight and appetite” (priority 2002, published 2007)
Where two headings read alike, the source gives them in different places.

Assay: Toxicokinetic evaluation in dogs
Assay type: in vivo
Details: beagle, dog, po; for AUC(0-t): read-out: AUC0-24 h
Experimental: Eighteen male and eighteen female beagle dogs were received from Ridglan Farms, Mt. Horeb, Wis. […] Each group consisted of four males and four females. All animals/sex/group were scheduled for the primary necropsy at the end of the 13-week treatment period.
The animals were observed twice daily for mortality and moribundity. Clinical examinations were performed daily at the time of dosing and approximately 1-2 and approximately 3 hours following dose administration. Detailed physical examinations were performed weekly. Clinical pathology evaluations (hematology, serum chemistry and urinalysis) were performed prior to the initiation of dose administration (study week-1) and prior to the scheduled necropsy (study week 13). Individual body weights were recorded weekly, beginning approximately two weeks prior to test article administration (study week-2). Mean body weights and mean body weight changes were calculated for each corresponding interval. Final body weights (fasted) were recorded prior to the scheduled necropsy. Blood samples for toxicokinetic evaluation were collected from all dogs on study days 0 and 88 at 0, 1, 2, 4, 8 and 24 hours after dose administration. […] Gross lesions were also examined from the 2.0 and 6.0 mg/kg/day groups.

[1] = female, blood, 6 mg/kg/day, female dogs, 6 mg/kg/day oral, Day 0
[2] = female, blood, 6 mg/kg/day, female dogs, 6 mg/kg/day oral, Day 88
[3] = female, blood, 20 mg/kg/day, female dogs, 20 mg/kg/day oral, Day 0
[4] = female, blood, 20 mg/kg/day, female dogs, 20 mg/kg/day oral, Day 88
[5] = female, in vivo, 2 mg/kg/day, female dogs, 2 mg/kg/day oral, Day 0
[6] = female, in vivo, 2 mg/kg/day, female dogs, 2 mg/kg/day oral, Day 88
[7] = male, blood, 2 mg/kg/day, male dogs, 2 mg/kg/day oral, Day 0
[8] = male, blood, 2 mg/kg/day, male dogs, 2 mg/kg/day oral, Day 88
[9] = male, in vivo, 6 mg/kg/day, male dogs, 6 mg/kg/day oral, Day 0
[10] = male, in vivo, 6 mg/kg/day, male dogs, 6 mg/kg/day oral, Day 88
[11] = male, in vivo, 20 mg/kg/day, male dogs, 20 mg/kg/day oral, Day 0
[12] = male, in vivo, 20 mg/kg/day, male dogs, 20 mg/kg/day oral, Day 88

SMILES: Clc1ccc([C@]23CNCC2C3)cc1Cl (single isomer, unassigned; (+)) [(+)-1-(3,4-dichlorophenyl)-3-azabicyclo[3.1.0]hexane]
- Tmax (female, blood, 2 mg/kg/day, female dogs, 2 mg/kg/day oral, Day 0): 1 h
- Tmax (female, blood, 2 mg/kg/day, female dogs, 2 mg/kg/day oral, Day 88): 1 h
- Cmax [1]: 5.12 µg/mL
- Tmax [1]: 1 h
- AUC(0-t) [1]: 13.6 µg·h/mL
- Cmax [2]: 4.85 µg/mL
- Tmax [2]: 1 h
- Cmax [3]: 9.28 µg/mL
- Tmax [3]: 2 h
- AUC(0-t) [3]: 63.6 µg·h/mL
- Cmax [4]: 8.43 µg/mL
- Tmax [4]: 1 h
- AUC(0-t) [4]: 29.6 µg·h/mL
- Cmax [5]: 0.635 µg/mL
- AUC(0-t) [5]: 1.47 µg·h/mL
- Cmax [6]: 0.663 µg/mL
- AUC(0-t) [6]: 2.15 µg·h/mL
- AUC(0-t) (female, in vivo, 6 mg/kg/day, female dogs, 6 mg/kg/day oral, Day 88): 15.9 µg·h/mL
- Cmax [7]: 0.507 µg/mL
- Tmax [7]: 1 h
- AUC(0-t) [7]: 1.57 µg·h/mL
- Cmax [8]: 0.753 µg/mL
- Tmax [8]: 1 h
- AUC(0-t) [8]: 2.27 µg·h/mL
- Cmax [9]: 4.64 µg/mL
- Tmax [9]: 1 h
- AUC(0-t) [9]: 12.8 µg·h/mL
- Cmax [10]: 4.14 µg/mL
- Tmax [10]: 1 h
- AUC(0-t) [10]: 13.1 µg·h/mL
- Cmax [11]: 11.4 µg/mL
- Tmax [11]: 1 h
- AUC(0-t) [11]: 47.8 µg·h/mL
- Cmax [12]: 7.23 µg/mL
- Tmax [12]: 1 h
- AUC(0-t) [12]: 44 µg·h/mL
